Reference: patent publication US12662484B2, “Substituted piperidines as bruton's tyrosine kinase inhibitors” (Shenzhen TargetRx, Inc., priority 2016, dated 2026)

What was measured:
[1] = molecular target: T1, Phospho-BTK (Y223) in NIH/3T3 BTK WT cells (Homo sapiens, UniProt Q06187); assay: Phospho-BTK (Y223) assay, NIH/3T3 BTK WT cells; format: cell-based; conditions: phospho-BTK Y223, NIH/3T3 BTK WT cells; read-out: NIH/3T3 BTK-WT pBTK IC50
T1 construct: expressed in transfected cells; host or cells: NIH/3T3
T1 sequence (Q06187 whole entry): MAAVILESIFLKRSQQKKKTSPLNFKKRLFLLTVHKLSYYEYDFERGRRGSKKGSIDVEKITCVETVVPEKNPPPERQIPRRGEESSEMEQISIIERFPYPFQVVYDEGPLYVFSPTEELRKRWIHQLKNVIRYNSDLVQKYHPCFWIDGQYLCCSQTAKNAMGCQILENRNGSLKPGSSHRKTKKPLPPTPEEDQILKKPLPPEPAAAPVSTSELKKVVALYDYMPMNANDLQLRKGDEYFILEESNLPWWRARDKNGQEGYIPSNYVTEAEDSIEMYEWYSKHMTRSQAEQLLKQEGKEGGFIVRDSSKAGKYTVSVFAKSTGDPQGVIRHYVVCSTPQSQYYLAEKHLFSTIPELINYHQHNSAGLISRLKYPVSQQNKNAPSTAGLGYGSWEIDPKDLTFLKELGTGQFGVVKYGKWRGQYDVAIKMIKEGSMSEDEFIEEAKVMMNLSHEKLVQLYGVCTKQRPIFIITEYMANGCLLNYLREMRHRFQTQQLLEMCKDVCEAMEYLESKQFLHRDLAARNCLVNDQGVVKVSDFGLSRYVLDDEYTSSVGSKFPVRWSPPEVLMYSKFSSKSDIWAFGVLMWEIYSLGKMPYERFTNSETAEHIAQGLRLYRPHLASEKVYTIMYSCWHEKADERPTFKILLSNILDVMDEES
Description: (§1) (5) Phospho-BTK (Y223) Assay The Adherent Cells Protocol: Day 1: • 1. […] The plate was incubated overnight at 37° C., 5% CO2. Day 2: • 1. 3-fold compound dilution was prepared, and dispensed 50 μL into 100 μL cell culture. 0.5% DMSO was used as positive control of the cell growth. • 2. The plate was incubated at 37° C., 5% CO2 for 0.5 h. • 3. 50 μL of 1 mM Na3VO4 was added, and incubated at 37° C., 5% CO2 for 2 h. • 4. During the incubation, the following reagents were prepared: 1× supplemented lysis buffer: 3 vol ddH2O+1 vol 4× Lysis buffer+100× Blocking reagent. p-BTK (Y223) cryptate-antibody and p-BTK (Y223) d2-antibody working solution: 1 volume of the stock solution of each antibody frozen aliquot (stored at)−20° was added into 19 volumes of the detection buffer (stored at) 4°. • 5. At the end of the incubation, the plate was flicked to remove the medium, then added 50 μL of 1× supplemented lysis buffer, and incubated at RT for 30 min, with 500 rpm shaking. • 6. The lysate was homogenized by pipetting up and down, and transferred 16 μL to a 384-well microplate. 1× supplemented lysis buffer was used as blank control. • 7. 4 μL of premixed antibody working solutions (cryptate Ab:d2 Ab=1:1) was added. The plate was covered with a plate sealer. • 8. Incubated at RT overnight. […] Data Analysis:
(§2) The IC50 value was calculated with GraphPad Prism 7.0.
(§3) The IC50 of the compounds for phosphorylating BTK Y223 was fit using the following formula.

[2] = Pharmacokinetics and brain distribution study after a single oral administration
Description: (6) Pharmacokinetics and Brain Distribution Study in Male Sprague Dawley Rats Following a Single Oral Administration
This study is designed to evaluate the pharmacokinetics and brain distribution of compounds disclosed herein in male Sprague Dawley Rat following a single Oral administration.
The animals were fasted overnight from 18:00 p.m. before the dosing day, and fed at 4 hr post-dose. All animals were free access to water during the study. Blood, CSF and brain were collected after each occasion of dosing at 0.5, 1, 2, and 8 hr. Blood samples (˜0.25 mL per time-point) were collected via jugular venous sinus puncture and placed in K2EDTA-containing tubes. Immediately following blood collection, the samples were inverted several times and held on wet ice before centrifugation. All the samples were centrifuged within 30 min of collection under refrigeration (set to maintain 4° C. for 5 min at 6000 rpm) to obtain plasma. The CSF samples (about 100 μL) were collected into tubes via puncture of the cisterna magna. The brain samples were rinsed with saline, drained with filter paper and removed with blood vessels, then weighted and recorded. 5-fold of the homogenate solvent (30% MeOH/70% 10 mM PBS) were used for the homogenization. All the samples were stored at −80° C., or lower until being analyzed with LC-MS/MS. Concentrations of the compounds disclosed herein in each matrix were used for PK analysis by non-compartmental method using WinNonlin.

BTK C481S = molecular target: T2, BTK C481S (Homo sapiens, UniProt Q06187, C481S); assay: BTK C481S kinase inhibition test (HTRF); format: biochemical
T2 construct: purchased Carna 08-547
T2 sequence (Q06187 whole entry C481S): as the sequence (Q06187 whole entry) above, with C481S counted along it
Description: (§4) Kinase Assay: Stock solution of the test compounds were prepared. The final concentration of DMSO in the kinase detection system was not exceed 1%. All of the procedures were carried out on ice, and the total volume of the reaction is 10 μL. Compound (4 μL), substrate and ATP (4 μL), and kinase (2 μL) were added to the wells of a 384-well plate in sequence, shaked for 30 sec, and reacted at room temperature for a proper time. Then, the resection was stopped by adding the detection reagents. The reaction mixture was reacted at room temperature for 1 hr, and detected with Microplate Reader.

ITK = molecular target: T3, ITK (Homo sapiens, UniProt Q08881); assay: ITK kinase inhibition test (HTRF); format: biochemical
T3 construct: purchased Carna 08-181
T3 sequence (Q08881 1-620): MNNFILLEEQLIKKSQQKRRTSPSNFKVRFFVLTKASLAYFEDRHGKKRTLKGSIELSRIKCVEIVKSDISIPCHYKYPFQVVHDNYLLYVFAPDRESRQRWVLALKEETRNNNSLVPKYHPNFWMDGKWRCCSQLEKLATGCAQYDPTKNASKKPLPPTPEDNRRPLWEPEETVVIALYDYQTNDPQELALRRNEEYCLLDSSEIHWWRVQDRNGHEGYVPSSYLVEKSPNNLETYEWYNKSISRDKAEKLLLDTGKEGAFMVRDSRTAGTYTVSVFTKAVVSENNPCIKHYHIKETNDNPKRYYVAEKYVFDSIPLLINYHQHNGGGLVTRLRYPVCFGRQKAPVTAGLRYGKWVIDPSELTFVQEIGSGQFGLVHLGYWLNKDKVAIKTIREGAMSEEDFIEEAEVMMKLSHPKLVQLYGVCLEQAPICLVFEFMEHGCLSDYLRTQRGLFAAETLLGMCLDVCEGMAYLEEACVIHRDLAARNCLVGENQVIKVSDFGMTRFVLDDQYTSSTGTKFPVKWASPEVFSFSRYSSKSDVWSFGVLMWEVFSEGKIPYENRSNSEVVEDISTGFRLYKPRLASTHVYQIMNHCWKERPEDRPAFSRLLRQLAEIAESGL
Description: (4) BTK C481S and ITK Kinase Inhibition Test
Reagents and materials: BTK C481S (Carna, catalog number: 08-547), ITK (Carna, catalog number: 08-181). […].
as §4, with “Reader. […].” for “Reader.”

[3] = molecular target: T4, Phospho-BTK (Y223) in NIH/3T3 BTK C481S cells (Homo sapiens, UniProt Q06187, C481S); assay: Phospho-BTK (Y223) assay, NIH/3T3 BTK C481S cells; format: cell-based; conditions: phospho-BTK Y223, NIH/3T3 BTK C481S cells; read-out: NIH/3T3 BTK-C481S pBTK IC50
T4 construct: expressed in transfected cells; host or cells: NIH/3T3
T4 sequence (Q06187 whole entry C481S): as the sequence (Q06187 whole entry) above, with C481S counted along it
Description: as §1, §2, §3

in vivo = conditions: male, Sprague-Dawley, rat
BTK = molecular target: T5, BTK (Homo sapiens, UniProt Q06187); assay: Kinase inhibition test (HTRF), BTK; format: biochemical; conditions: 1 nM BTK, 20 μM ATP
T5 construct: purchased Invitrogen PR5442A
T5 sequence (Q06187 whole entry): as the sequence (Q06187 whole entry) above
Description: (1) Kinase Inhibition Test
• 1) Compound dilution: The test compounds were dissolved in DMSO to make a 10 mM stock solution.

[4] = male, Sprague-Dawley, rat, in vivo
[5] = male SD rat, 10 mg/kg oral, CSF
[6] = male SD rat, 10 mg/kg oral, brain
[7] = male SD rat, 10 mg/kg oral, plasma
[8] = male, Sprague Dawley, rat, CSF, po, 10 mg/kg
[9] = male, Sprague Dawley, rat, brain, po, 10 mg/kg
[10] = male, Sprague Dawley, rat, plasma, po, 10 mg/kg

Compound	IC50 [1] [nM]	IC50 (BTK C481S) [nM]	IC50 (ITK) [nM]	IC50 [3] [nM]	Cmax, CSF [2, 5] [ng/mL]	Cmax, Brain [2, 6] [ng/mL]	AUC(0-t) [2, 8] [ng·h/mL]	AUC(0-inf) [2, 10] [ng·h/mL]	AUC(0-t) [2, 10] [ng·h/mL]	MRT inf [2, 10] [min]	also measured
C=CC(=O)N1CCC[C@@H](c2nc(-c3ccc(Oc4ccccc4)cc3)c3c(N)nccn23)C1 [Example 7, (R)-1-(3-(8-amino-1-(4-phenoxyphenyl)imidazo[1,5-a]pyrazin-3-yl)piperidin-1-yl)prop-2-en-1-one]	7.36	2.46	21.9	162	0.478	18	0.119	285	275	122	Cl_pred, Plasma [2, 7]: 586; Vz_pred, Plasma [2, 7]: 85.5 L/kg; Tmax [2, 8]: 30 min; AUC(0-t) [2, 9]: 16.4 ng·h/mL; Tmax [2, 9]: 30 min; Cmax [2, 10]: 117 ng/mL; Tmax [2, 10]: 30 min; half-life [2, 10]: 101 min
C=CC(=O)N1CCC[C@H](c2nn(-c3ccc(Oc4ccccc4)cc3)c3c(N)ncnc23)C1 [Example 6, (S)-1-(3-(7-amino-1-(4-phenoxyphenyl)-1H-pyrazolo[4,3-d]pyrimidin-3-yl)piperidin-1-yl)prop-2-en-1-one]	18.7	16.1	4380	> 1000	–	–	–	–	–	–	–
C=CC(=O)N1CCC[C@@H](n2nc(-c3ccc(Oc4ccccc4)cc3)c3c(N)ncnc32)C1 [Ibrutinib, reference compound]	–	–	–	–	0.35	25.4	0.0875	666	626	145	–
C=CC(=O)N1CCC[C@@H](c2cn(-c3ccc(Oc4ccccc4)cc3)c3c(N)ncnc23)C1 [Example 3, (S)-1-(3-(4-amino-5-(4-phenoxyphenyl)-5H-pyrrolo[3,2-d]pyrimidin-7-yl)piperidin-1-yl)prop-2-en-1-one]	6.62	10.7	139	502	–	–	–	–	–	–	–

Continued by falling IC50 [1], values first:

IC50 [1] [nM]	IC50 (BTK C481S) [nM]	IC50 (ITK) [nM]	IC50 [3] [nM]	Compound	Cmax, CSF [2, 5] [ng/mL]	Cmax, Brain [2, 6] [ng/mL]	AUC(0-t) [2, 8] [ng·h/mL]	AUC(0-inf) [2, 10] [ng·h/mL]	AUC(0-t) [2, 10] [ng·h/mL]	MRT inf [2, 10] [min]	also measured
5.48	6.02	619	663	C=CC(=O)N1CCC[C@@H](c2nn(-c3ccc(Oc4ccccc4)cc3)c3c(N)ncnc23)C1 [Example 5, (R)-1-(3-(7-amino-1-(4-phenoxyphenyl)-1H-pyrazolo[4,3-d]pyrimidin-3-yl)piperidin-1-yl)prop-2-en-1-one]	–	–	–	–	–	–	–
4.86	3.85	172	291	C=CC(=O)N1CCC[C@@H](c2nc(-c3ccc(Oc4ccccc4)cc3)c3c(N)ncnn23)C1 [Example 8, (R)-1-(3-(4-amino-5-(4-phenoxyphenyl)imidazo[5,1-f][1,2,4]triazin-7-yl)piperidin-1-yl)prop-2-en-1-one]	–	–	–	–	–	–	AUC(0-t) (in vivo; iv, 0.5 mg/kg): 255 ng·h/mL; Cmax (in vivo; iv, 0.5 mg/kg): 1120 ng/mL; AUC(0-t) (in vivo; po, 10 mg/kg): 820 ng·h/mL; Cmax (in vivo; po, 10 mg/kg): 348 ng/mL; Tmax (in vivo; po, 10 mg/kg): 20 min; IC50 (BTK): < 1 nM; F [4]: 16.0%
